Assay results from patent US20260132125A1, “PESTICIDALLY ACTIVE FUSED BICYCLIC HETEROAROMATIC COMPOUNDS” (priority 2022, published 2026).

What was measured:
Assay type in all cases: in vivo
Euschistus heros = assay: Example B3: activity against Euschistus heros (neotropical brown stink bug), soybean leaves; details: 120 h, N2 nymphs, 5 days after infestation, read-out: effect in at least one of the two categories (mortality or growth inhibition)
Description: Soybean leaves on agar in 24-well microtiter plates were sprayed with aqueous test solutions prepared from 10′000 ppm DMSO stock solutions. After drying the leaves were infested with N2 nymphs. The samples were assessed for mortality and growth inhibition in comparison to untreated samples 5 days after infestation. The following compounds gave an effect of at least 80% in at least one of the two categories (mortality or growth inhibition) at an application rate of 200 ppm: […]

Plutella xylostella = assay: Example B5: activity against Plutella xylostella (diamond back moth), artificial diet, eggs; details: 192 h, 8 days after infestation, read-out: effect in at least one of the two categories (mortality or growth inhibition)
How it was run: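 Artificial diet in 24-well plates was treated with aqueous dilutions of DMSO stocks, dried, then infested with Plutella eggs. Mortality and growth inhibition were scored against untreated samples 8 days after infestation; application rate 200 ppm.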

Spodoptera littoralis = assay: Example B6: activity against Spodoptera littoralis (Egyptian cotton leaf worm), cotton leaf discs; details: foliar, 72 h, 200 ppm, L1 larvae, 3 days after infestation, read-out: control (at least one of mortality, anti-feedant effect, growth inhibition)
How it was run: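 Five L1 larvae per sprayed, dried cotton leaf disc on agar. Activity is counted when mortality, anti-feedant effect or growth inhibition exceeds the untreated sample at day 3.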

Chilo suppressalis = assay: Example B1: activity against Chilo suppressalis (striped rice stemborer), artificial diet; details: 144 h, 200 ppm, L2 larvae, 6 days after infestation, read-out: control (at least one of mortality, anti-feedant effect, growth inhibition)
How it was run: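 Diet-incorporation surface assay: aqueous dilutions of 10'000 ppm DMSO stock applied to artificial diet, dried; 6-8 L2 larvae/well; read day 6 post-infestation for mortality, antifeedant effect, growth inhibition vs untreated. Active if any category above untreated.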

Diabrotica balteata = assay: Example B2: activity against Diabrotica balteata (corn root worm), maize sprouts; details: 96 h, L2 larvae, 4 days after infestation, read-out: effect in at least one of the two categories (mortality or growth inhibition)
How it was run: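 Maize sprouts on agar were sprayed with aqueous test solutions made from 10′000 ppm DMSO stocks, dried, then infested with 6–10 L2 larvae per well. Mortality and growth inhibition were scored against untreated samples 4 days after infestation, at an application rate of 200 ppm.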

Myzus persicae = assay: Example B4: activity against Myzus persicae (green peach aphid), intrinsic activity; details: 120 h, test rate 12 ppm, 5 days after infestation
Description: Test compounds prepared from 10′000 ppm DMSO stock solutions were applied by pipette into 24-well microtiter plates and mixed with sucrose solution. The plates were closed with a stretched Parafilm. A plastic stencil with 24 holes was placed onto the plate and infested pea seedlings were placed directly on the Parafilm. The infested plate was closed with a gel blotting paper and another plastic stencil and then turned upside down. The samples were assessed for mortality 5 days after infestation.

Pseudoplusia includens = assay: Example B9: Pseudoplusia includens (soybean looper), larvicide, feeding/contact, soybean plants; details: Chrysodeixis includens, 120 h; 50 ppm; L2 larvae; 5 days after infestation; read-out: effect in at least one of the two categories (mortality or growth inhibition)
Description: Soybean plants were treated in a spray chamber, cut off and placed into petri dishes containing wet filter paper. 1d after application leaves were infested with 5 L2 larvae and covered with a fabric filter and plastic lids. 5 days after infestation the samples were assessed for mortality and growth inhibition. The following compounds gave an effect of at least 80% in at least one of the two categories (mortality or growth inhibition) at an application rate of 50 ppm: […]

C[C@H](Nc1ncnc2c(C(F)(F)F)cc(Cl)cc12)c1ncnn1-c1ncc(C(N)=O)cn1 [Compound P68, 2-[5-[(1S)-1-[[6-chloro-8-(trifluoromethyl)quinazolin-4-yl]amino]ethyl]-1,2,4-triazol-1-yl]pyrimidine-5-carboxamide]
≥ 80%: percent effect (mortality or growth inhibition) at 200 ppm (Euschistus heros)

C[C@H](Nc1ncnc2c(Br)cc(Br)cc12)c1ncnn1-c1cnc(C(N)=O)cn1 [Compound P74, 5-[5-[(1S)-1-[(6,8-dibromoquinazolin-4-yl)amino]ethyl]-1,2,4-triazol-1-yl]pyrazine-2-carboxamide]
≥ 80%: percent effect (mortality or growth inhibition) at 200 ppm (Euschistus heros) | percent effect (mortality or growth inhibition) at 200 ppm (Plutella xylostella) | percent control (mortality, anti-feedant effect or growth inhibition) at 200 ppm (Spodoptera littoralis)

C[C@H](Nc1ncnc2c(I)cc(Cl)cc12)c1ncnn1-c1cnc(C(N)=O)cn1 [Compound P75, 5-[5-[(1S)-1-[(6-chloro-8-iodo-quinazolin-4-yl)amino]ethyl]-1,2,4-triazol-1-yl]pyrazine-2-carboxamide]
≥ 80%: percent control (mortality, anti-feedant effect or growth inhibition) at 200 ppm (Chilo suppressalis) | percent effect (mortality or growth inhibition) at 200 ppm (Diabrotica balteata) | percent effect (mortality or growth inhibition) at 200 ppm (Euschistus heros) | mortality at 12 ppm (Myzus persicae) | percent effect (mortality or growth inhibition) at 200 ppm (Plutella xylostella) | percent control (mortality, anti-feedant effect or growth inhibition) at 200 ppm (Spodoptera littoralis)

CNC(=O)c1cc(-n2ncnc2[C@H](C)Nc2ncnc3c(Cl)cc(C(F)(F)F)cc23)ncn1 [Compound P16, 6-[5-[(1S)-1-[[8-chloro-6-(trifluoromethyl)quinazolin-4-yl]amino]ethyl]-1,2,4-triazol-1-yl]-N-methyl-pyrimidine-4-carboxamide]
≥ 80%: percent control (mortality, anti-feedant effect or growth inhibition) at 200 ppm (Chilo suppressalis) | percent effect (mortality or growth inhibition) at 200 ppm (Diabrotica balteata) | mortality at 12 ppm (Myzus persicae) | percent effect (mortality or growth inhibition) at 200 ppm (Plutella xylostella) | percent control (mortality, anti-feedant effect or growth inhibition) at 200 ppm (Spodoptera littoralis) | percent effect (mortality or growth inhibition) at 50 ppm (Pseudoplusia includens)

C[C@H](Nc1ncnc2c(C(F)(F)F)cc(Cl)cc12)c1ncnn1-c1cc(C(=O)N(C)CC#N)ncn1 [Compound P62, 6-[5-[(1S)-1-[[6-chloro-8-(trifluoromethyl)quinazolin-4-yl]amino]ethyl]-1,2,4-triazol-1-yl]-N-(cyanomethyl)-N-methyl-pyrimidine-4-carboxamide]
≥ 80%: percent control (mortality, anti-feedant effect or growth inhibition) at 200 ppm (Chilo suppressalis) | percent effect (mortality or growth inhibition) at 200 ppm (Diabrotica balteata) | mortality at 12 ppm (Myzus persicae) | percent effect (mortality or growth inhibition) at 200 ppm (Plutella xylostella) | percent control (mortality, anti-feedant effect or growth inhibition) at 200 ppm (Spodoptera littoralis) | percent effect (mortality or growth inhibition) at 50 ppm (Pseudoplusia includens)

C[C@@H](c1ncnn1-c1cc(C(N)=O)ncn1)N(C)c1ncnc2c(Cl)cc(C(F)(F)F)cc12 [Compound P51, 6-[5-[(1S)-1-[[8-chloro-6-(trifluoromethyl)quinazolin-4-yl]-methyl-amino]ethyl]-1,2,4-triazol-1-yl]pyrimidine-4-carboxamide]
≥ 80%: percent control (mortality, anti-feedant effect or growth inhibition) at 200 ppm (Chilo suppressalis) | percent effect (mortality or growth inhibition) at 200 ppm (Diabrotica balteata) | percent effect (mortality or growth inhibition) at 200 ppm (Euschistus heros) | mortality at 12 ppm (Myzus persicae) | percent effect (mortality or growth inhibition) at 200 ppm (Plutella xylostella) | percent control (mortality, anti-feedant effect or growth inhibition) at 200 ppm (Spodoptera littoralis)

C[C@H](Nc1ncnc2c(Cl)cc(C(F)(F)F)cc12)c1ncnn1-c1ncc(C(N)=O)s1 [Compound P35, 2-[5-[(1S)-1-[[8-chloro-6-(trifluoromethyl)quinazolin-4-yl]amino]ethyl]-1,2,4-triazol-1-yl]thiazole-5-carboxamide]
≥ 80%: percent control (mortality, anti-feedant effect or growth inhibition) at 200 ppm (Chilo suppressalis) | percent effect (mortality or growth inhibition) at 200 ppm (Diabrotica balteata) | percent effect (mortality or growth inhibition) at 200 ppm (Euschistus heros) | mortality at 12 ppm (Myzus persicae) | percent effect (mortality or growth inhibition) at 200 ppm (Plutella xylostella) | percent control (mortality, anti-feedant effect or growth inhibition) at 200 ppm (Spodoptera littoralis)

CNC(=O)c1cc(-n2ncnc2[C@H](C)N(C)c2ncnc3c(I)cc(Cl)cc23)ncn1 [Compound P33, 6-[5-[(1S)-1-[(6-chloro-8-iodo-quinazolin-4-yl)-methyl-amino]ethyl]-1,2,4-triazol-1-yl]-N-methyl-pyrimidine-4-carboxamide]
≥ 80%: percent control (mortality, anti-feedant effect or growth inhibition) at 200 ppm (Chilo suppressalis) | percent effect (mortality or growth inhibition) at 200 ppm (Diabrotica balteata) | mortality at 12 ppm (Myzus persicae) | percent effect (mortality or growth inhibition) at 200 ppm (Plutella xylostella) | percent control (mortality, anti-feedant effect or growth inhibition) at 200 ppm (Spodoptera littoralis) | percent effect (mortality or growth inhibition) at 50 ppm (Pseudoplusia includens)

C[C@@H](c1ncnn1-c1cc(C(N)=O)ncn1)N(C)c1ncnc2c(Br)cc(Br)cc12 [Compound P48, 6-[5-[(1S)-1-[(6,8-dibromoquinazolin-4-yl)-methyl-amino]ethyl]-1,2,4-triazol-1-yl]pyrimidine-4-carboxamide]
≥ 80%: percent control (mortality, anti-feedant effect or growth inhibition) at 200 ppm (Chilo suppressalis) | percent effect (mortality or growth inhibition) at 200 ppm (Diabrotica balteata) | percent effect (mortality or growth inhibition) at 200 ppm (Euschistus heros) | mortality at 12 ppm (Myzus persicae) | percent effect (mortality or growth inhibition) at 200 ppm (Plutella xylostella) | percent control (mortality, anti-feedant effect or growth inhibition) at 200 ppm (Spodoptera littoralis)

CNC(=O)c1cnc(-n2ncnc2[C@H](C)Nc2ncnc3c(C(F)(F)F)cc(Cl)cc23)s1 [Compound P7, 2-[5-[(1S)-1-[[6-chloro-8-(trifluoromethyl)quinazolin-4-yl]amino]ethyl]-1,2,4-triazol-1-yl]-N-methyl-thiazole-5-carboxamide]
≥ 80%: percent control (mortality, anti-feedant effect or growth inhibition) at 200 ppm (Chilo suppressalis) | percent effect (mortality or growth inhibition) at 200 ppm (Diabrotica balteata) | percent effect (mortality or growth inhibition) at 200 ppm (Euschistus heros) | percent effect (mortality or growth inhibition) at 200 ppm (Plutella xylostella) | percent control (mortality, anti-feedant effect or growth inhibition) at 200 ppm (Spodoptera littoralis)

CNC(=O)c1cc(-n2ncnc2[C@H](C)N(C)c2ncnc3c(Cl)cc(I)cc23)ncn1 [Compound P34, 6-[5-[(1S)-1-[(8-chloro-6-iodo-quinazolin-4-yl)-methyl-amino]ethyl]-1,2,4-triazol-1-yl]-N-methyl-pyrimidine-4-carboxamide]
≥ 80%: percent control (mortality, anti-feedant effect or growth inhibition) at 200 ppm (Chilo suppressalis) | percent effect (mortality or growth inhibition) at 200 ppm (Diabrotica balteata) | mortality at 12 ppm (Myzus persicae) | percent effect (mortality or growth inhibition) at 200 ppm (Plutella xylostella) | percent control (mortality, anti-feedant effect or growth inhibition) at 200 ppm (Spodoptera littoralis)

C[C@H](Nc1ncnc2c(Cl)cc(C(F)(F)F)cc12)c1ncnn1-c1cnc(C(=O)NCC#N)cn1 [Compound P69, 5-[5-[(1S)-1-[[8-chloro-6-(trifluoromethyl)quinazolin-4-yl]amino]ethyl]-1,2,4-triazol-1-yl]-N-(cyanomethyl)pyrazine-2-carboxamide]
≥ 80%: percent control (mortality, anti-feedant effect or growth inhibition) at 200 ppm (Chilo suppressalis) | percent effect (mortality or growth inhibition) at 200 ppm (Diabrotica balteata) | mortality at 12 ppm (Myzus persicae) | percent effect (mortality or growth inhibition) at 200 ppm (Plutella xylostella) | percent control (mortality, anti-feedant effect or growth inhibition) at 200 ppm (Spodoptera littoralis)

CNC(=O)c1cc(-n2ncnc2[C@H](C)Nc2ncnc3c(Cl)cc(I)cc23)ncn1 [Compound P4, 6-[5-[(1S)-1-[(8-chloro-6-iodo-quinazolin-4-yl)amino]ethyl]-1,2,4-triazol-1-yl]-N-methyl-pyrimidine-4-carboxamide]
≥ 80%: percent control (mortality, anti-feedant effect or growth inhibition) at 200 ppm (Chilo suppressalis) | percent effect (mortality or growth inhibition) at 200 ppm (Diabrotica balteata) | mortality at 12 ppm (Myzus persicae) | percent effect (mortality or growth inhibition) at 200 ppm (Plutella xylostella) | percent control (mortality, anti-feedant effect or growth inhibition) at 200 ppm (Spodoptera littoralis)

C[C@@H](c1ncnn1-c1cc(C(=O)N(C)C)ncn1)N(C)c1ncnc2c(I)cc(Cl)cc12 [Compound P66, 6-[5-[(1S)-1-[(6-chloro-8-iodo-quinazolin-4-yl)-methyl-amino]ethyl]-1,2,4-triazol-1-yl]-N,N-dimethyl-pyrimidine-4-carboxamide]
≥ 80%: percent control (mortality, anti-feedant effect or growth inhibition) at 200 ppm (Chilo suppressalis) | percent effect (mortality or growth inhibition) at 200 ppm (Diabrotica balteata) | mortality at 12 ppm (Myzus persicae) | percent effect (mortality or growth inhibition) at 200 ppm (Plutella xylostella) | percent control (mortality, anti-feedant effect or growth inhibition) at 200 ppm (Spodoptera littoralis)

C[C@H](Nc1ncnc2c(C(F)(F)F)cc(Cl)cc12)c1ncnn1-c1ncc(C(N)=O)s1 [Compound P8]
≥ 80%: percent control (mortality, anti-feedant effect or growth inhibition) at 200 ppm (Chilo suppressalis) | percent effect (mortality or growth inhibition) at 200 ppm (Diabrotica balteata) | mortality at 12 ppm (Myzus persicae) | percent effect (mortality or growth inhibition) at 200 ppm (Plutella xylostella) | percent control (mortality, anti-feedant effect or growth inhibition) at 200 ppm (Spodoptera littoralis) | percent effect (mortality or growth inhibition) at 50 ppm (Pseudoplusia includens)
